Test results published in paper PMC5384110 (European journal of medicinal chemistry, 2017).

Experiments:
Type in all cases: biochemical, HIV-1
[1] = molecular target: HIV integrase strand transfer (INST) (Human immunodeficiency virus type 1 group M subtype B, UniProt P04585); assay: INST assay
RT mutant Y181C = RT mutant Y181C (Human immunodeficiency virus type 1 group M subtype B, UniProt P04585, Y768C); assay: RT pol assay against RT mutant Y181C
RT mutant K103N = RT mutant K103N (Human immunodeficiency virus type 1 group M subtype B, UniProt P04585, K690N); assay: RT pol assay against RT mutant K103N
HIV RT pol = HIV RT pol (Human immunodeficiency virus type 1 group M subtype B, UniProt P04585); assay: RT pol assay; conditions: Table 1; mean ± SD, at least two independent experiments
HIV RT RNase H = HIV RT RNase H (Human immunodeficiency virus type 1 group M subtype B, UniProt P04585); assay: RNase H assay; conditions: read-out: RT IC50 RNH; Table 2; 3-deoxy precursor 11; tested up to 10 μM

| Compound | IC50 [1] [µM] | also measured |
| --- | --- | --- |
| CC(C)c1c(CC2CCCCC2)n(COCc2ccccc2)c(=O)n(O)c1=O [4a, 1-((Benzyloxy)methyl)-6-(cyclohexylmethyl)-3-hydroxy-5-isopropylpyrimidine-2,4(1H,3H)-dione] | > 100 | IC50 (RT mutant Y181C): > 10 µM; IC50 (RT mutant K103N): > 10 µM |
| CC(C)c1c(CC2CCCCC2)n(COCc2ccc(F)cc2)c(=O)n(O)c1=O [4b, 6-(Cyclohexylmethyl)-1-(((4-fluorobenzyl)oxy)methyl)-3-hydroxy-5-isopropylpyrimidine-2,4(1H,3H)-dione] | > 100 |  |
| CCc1c(CC2CCCCC2)n(COCc2ccccc2)c(=O)n(O)c1=O [4c, 1-((Benzyloxy)methyl)-6-(cyclohexylmethyl)-5-ethyl-3-hydroxypyrimidine-2,4(1H,3H)-dione] | > 100 |  |
| CCc1c(CC2CCCCC2)n(COCc2ccc(F)cc2)c(=O)n(O)c1=O [4d, 6-(Cyclohexylmethyl)-5-ethyl-1-(((4-fluorobenzyl)oxy)methyl)-3-hydroxypyrimidine-2,4(1H,3H)-dione] | > 100 |  |
| CCc1c(CC2CCCCC2)n(COCc2cccc(Cl)c2F)c(=O)n(O)c1=O [4e, 1-(((3-Chloro-2-fluorobenzyl)oxy)methyl)-6-(cyclohexylmethyl)-5-ethyl-3-hydroxypyrimidine-2,4(1H,3H)-dione] | > 100 |  |
| CCc1c(CC2CCCCC2)n(COCc2ccc(F)c(F)c2)c(=O)n(O)c1=O [4f, 6-(Cyclohexylmethyl)-1-(((3,4-difluorobenzyl)oxy)methyl)-5-ethyl-3-hydroxypyrimidine-2,4(1H,3H)-dione] | > 100 | RT IC50 Pol (HIV RT pol): did not inhibit RT pol |
| CCc1c(CC2CCCCC2)n(COCc2ccc(C(F)(F)F)cc2)c(=O)n(O)c1=O [4g, 6-(Cyclohexylmethyl)-5-ethyl-3-hydroxy-1-(((4-(trifluoromethyl)benzyl)oxy)methyl)pyrimidine-2,4(1H,3H)-dione] | > 100 |  |
| CCc1c(CC2CCCCC2)n(COCc2ccc(C)cc2)c(=O)n(O)c1=O [4h, 6-(Cyclohexylmethyl)-5-ethyl-3-hydroxy-1-(((4-methylbenzyl)oxy)methyl) pyrimidine-2,4(1H,3H)-dione] | > 100 |  |
| Cc1c(CC2CCCCC2)n(COCc2ccccc2)c(=O)n(O)c1=O [4i, 1-((Benzyloxy)methyl)-6-(cyclohexylmethyl)-3-hydroxy-5-methylpyrimidine-2,4(1H,3H)-dione] | > 100 |  |
| Cc1c(CC2CCCCC2)n(COCc2cccc(Cl)c2F)c(=O)n(O)c1=O [4j, 1-(((3-Chloro-2-fluorobenzyl)oxy)methyl)-6-(cyclohexylmethyl)-3-hydroxy-5-methylpyrimidine-2,4(1H,3H)-dione] | > 100 |  |
| Cc1c(CC2CCCCC2)n(COCc2ccc(F)c(F)c2)c(=O)n(O)c1=O [4k, 6-(Cyclohexylmethyl)-1-(((3,4-difluorobenzyl)oxy)methyl)-3-hydroxy-5-methyl pyrimidine-2,4(1H,3H)-dione] | > 100 |  |
| Cc1c(CC2CCCCC2)n(COCc2ccc(C(F)(F)F)cc2)c(=O)n(O)c1=O [4l, 6-(Cyclohexylmethyl)-3-hydroxy-5-methyl-1-(((4-(trifluoromethyl)benzyl)oxy)methyl)pyrimidine-2,4(1H,3H)-dione] | > 100 |  |
| Cc1c(CC2CCCCC2)n(COCCc2ccc(F)cc2)c(=O)n(O)c1=O [4m, 6-(Cyclohexylmethyl)-1-((4-fluorophenethoxy)methyl)-3-hydroxy-5-methyl pyrimidine-2,4(1H,3H)-dione] | > 100 |  |
| CC(C)c1c(Cc2ccccc2)n(COCc2ccccc2)c(=O)[nH]c1=O [compound 14, TNK-651] |  | IC50 (HIV RT RNase H): > 10 µM |
